Usually IC50 stands for the midpoint of a concentration-inhibition curve. Low values mean greater potency, high ones weaker potency.

Test [1] concerns A549. The test can be described thus: Antiproliferative activity against human A549 cells by MTT assay. It is filed as functional, cell-based. On the technique in general: Tetrazolium dyes change colour on reduction, which living cells bring about.
Test [2] relates to A549. The test can be described thus: Cell cycle arrest in human A549 cells assessed as accumulation at G2/M phase at 10 uM after 24 hrs by flow cytometry analysis (reference value: 14.18 +/- 1.03%). It counts as functional. A general note: In flow cytometry, cells or beads pass a laser one at a time.
Test [3] concerns A549. The test can be described thus: Cell cycle arrest in human A549 cells assessed as accumulation at S phase at 10 uM after 24 hrs by flow cytometry analysis (reference value: 16.23 +/- 1.73%). It is filed as functional.
In test [4] the test system is A549. The test can be described thus: Cell cycle arrest in human A549 cells assessed as accumulation at G1 phase at 10 uM after 24 hrs by flow cytometry analysis (reference value: 68.78 +/- 2.43%). It is filed as functional.

The molecule `C=C1C(=O)[C@]23[C@H](O)[C@H]1CC[C@H]2[C@@]12CO[C@]3(O)[C@@H](O)[C@@H]1C(C)(C)CC[C@@H]2O` [ORIDONIN] gave an IC50 in the test with A549 [1] of 18.7 µM. `COc1cc(C2CC(=O)c3c(cc(O)c(C/C=C(\C)CCCC(C)(C)O)c3O)O2)cc(O)c1O` (configuration not stated) came in with an IC50 in the test with A549 [1] of 22.1 µM. This IC50 and that of the molecule before are within 1.5-fold of each other. Molecule `COc1cc(C2CC(=O)c3c(O)cc(O)c(C/C=C(\C)CCCC(C)(C)O)c3O2)cc(O)c1O` (configuration not stated) returned an IC50 in the test on A549 [1] of 23.7 µM. The IC50 values of the last two molecules are within 1.5-fold of each other. In the test with A549 [1], `CC(C)=CCC/C(C)=C\Cc1c(O)c(-c2c(O)c(C/C=C(/C)CCC=C(C)C)c3c(c2O)C(=O)CC(c2ccc(O)c(O)c2)O3)c(O)c2c1OC(c1ccc(O)c(O)c1)CC2=O` (configuration not stated) returned an IC50 of 8.9 µM. Further, the Activity is recorded as 5.05% in the test on A549 [2], 5.05% in the test with A549 [3] and 88.88% in the test on A549 [4].

These data come from ChEMBL document CHEMBL3608219, “New geranylated flavanones from the fruits of Paulownia catalpifolia Gong Tong with their anti-proliferative activity on lung cancer cells A549” (Bioorg Med Chem Lett, 2015).
